Drawing on patent publication US12686657B2, “Anti-inflammatory carboxamide derivatives” (BIOMEDCODE HELLAS SA, priority 2021, dated 2026), this text covers activity and IC50 for 5 molecules.

Molecules are shown by their SMILES. Like-named read-outs stand apart in the source and are kept apart here.

For the experiment, the system named is hTNFtg SFs. Description: CCL5 and CCL20 ELISA on hTNFtg synovial fibroblasts. The format is cell-based, mice. As to conditions: Mus musculus, Fibroblast; for activity at 10 µM: compound 10 μM; for activity at 10 µM / activity at 25 µM / activity at 50 µM: 48 h; for activity at 25 µM: compound 25 μM; for activity at 50 µM: compound 50 μM. As to the method:
Primary SFs were derived from a) human TNF transgenic (hTNFTg) mice (Keffer et al., 1991) as well as from b) CBA/C57BL6 wild type mice.
hTNFtg mice overexpress human TNF, resulting in the spontaneous development of arthritis.
SFs were isolated as previously described by Armaka et al., 2009, from the ankle joints of hTNFtg or CBA/C57BL6 wild type (wt) littermates. Briefly, ankle joints were digested with Collagenase IV (Sigma Aldrich, C5138) for 45 minutes at a 37° C. shaking waterbath and after 5 days in culture at 37° C. and 5% CO2, a depletion of CD45+ lineage cells was performed using a Biotin anti-mouse CD45 Antibody (Biolegend, 103104) and Dynabeads™ Biotin Binder (ThermoFisher 11047), according to the manufacturer's protocol. After 10 days in culture, SFs were seeded overnight (O/N) at a concentration of 2×10^4 cells/well in a 96 well plate in 1×DMEM, supplemented with 100 U/ml Penicillin Streptomycin (P/S) and 10% Fetal Bovine Serum (FBS). The next day the cells were synchronized by starvation that included their O/N plating in low serum medium (0.5% FBS). Following the O/N starvation, the hTNFg and the WT SFs were treated with different concentrations of the experimental compounds. The SFs were at the same time activated with 10 ng/ml hTNF (Peprotech, 300-01A). 48 h following the treatment the cell culture supernatants were collected and analyzed by ELISA (R&S Systems, Duoset, DY478 and DY760) according to the manufacturer's protocol, for the detection of CCL5/Rantes and CCL20/Mip3, two known inflammatory chemokines. The IC50 values were determined as the concentration of the compounds required to reduce the levels of secreted CCL5 and CCL20 by 50%.
Table 7 summarizes the reduction of CCL5 and CCL20 levels achieved with the test compounds of the invention. Data are presented as percentages of the chemokine levels detected in treated cells compared to 100% levels of the chemokines detected in the untreated cells.
Table 8 summarizes the values of IC50 and toxicity for the test compounds of the invention. Dose response curves regarding the WT SFs were produced with 10 ng/ml hTNF stimulation for all compounds, with the exception of the compounds E and F, where WT cells were induced using hTNF at 1 ng/ml: […]
Background: ELISA stands for enzyme-linked immunosorbent assay.

Where [1] appears, read: read-out: CCL5 hTNFtg, percentage of level in untreated cells.
The mark [2] stands for this setting: read-out: CCL20 hTNFtg, percentage of level in untreated cells.
[3] abbreviates: read-out: IC50 (μM) CCL5 hTNFtg.
[4] abbreviates: read-out: IC50 (μM) CCL20 hTNFtg.

A word on the IC50: it is the midpoint of a concentration-inhibition curve. Consider `COc1cc(N)c(Cl)cc1C(=O)NCC1(Nc2cccc(OC(F)(F)F)c2)CCCCCC1` [F, 4-amino-5-chloro-2-methoxy-N-((1-((3-(trifluoromethoxy)phenyl)amino)cycloheptyl)methyl)benzamide], for which the activity at 10 µM under setting [1] worked out at 0% and the activity at 10 µM under setting [2] was determined as 24%. The activity at 25 µM by setting is: under setting [1], 0%; under setting [2], 29%. Further, the IC50 runs as follows: under setting [3], under 0.01 µM; under setting [4], under 0.01 µM.

Take `COc1cc(N)c(Cl)cc1C(=O)NCC1(Nc2ccc(F)cc2Cl)CCCCCC1` [E, 4-amino-5-chloro-N-((1-((2-chloro-4-fluorophenyl)amino)cycloheptyl)methyl)-2-methoxybenzamide]: the activity at 10 µM is, setting by setting: under setting [1], 8.2%; under setting [2], 14%. The activity at 25 µM under setting [1] amounted to 5% and the activity at 25 µM under setting [2] is 20%. In addition, the IC50 reads like this: under setting [3], 1.69 µM; under setting [4], 4.07 µM.

In the case of `COc1cc(N)c(Cl)cc1C(=O)NCC1(Nc2ccc(Cl)cc2)CCCCCC1` [Compound 53, 4-amino-5-chloro-N-((1-((4-chlorophenyl)amino)cycloheptyl)methyl)-2-methoxybenzamide], the activity at 10 µM turned out to be 40% under setting [1] and 22% under setting [2]. For the same molecule, the activity at 50 µM worked out at 34% under setting [1] and 22% under setting [2]. Moreover, the IC50 by setting is: under setting [3], 2.3 µM; under setting [4], 3.2 µM.

As to `COc1cc(N)c(Cl)cc1C(=O)NCC1(c2ccc(Cl)cc2)CCCCCC1` [Compound 52, 4-amino-5-chloro-N-((1-(4-chlorophenyl)cycloheptyl)methyl)-2-methoxybenzamide], the activity at 10 µM by setting is: under setting [1], 50%; under setting [2], 67%. Also, the activity at 50 µM under setting [1] turned out to be 29% and the activity at 50 µM under setting [2] was determined as 48%. Further, the IC50 worked out at 4.2 µM under setting [3] and 15 µM under setting [4].

In the case of `COc1cc(N)c(Cl)cc1C(=O)NCC1(c2ccc(Cl)cc2)CCCCC1` [Compound 51, 4-amino-5-chloro-N-((1-(4-chlorophenyl)cyclohexyl)methyl)-2-methoxybenzamide], the activity at 10 µM under setting [1] is 46% and the activity at 10 µM under setting [2] came to 16%. The activity at 50 µM is 47% under setting [1] and 13% under setting [2]. The IC50 is, setting by setting: under setting [3], 2.6 µM; under setting [4], 1 µM.
